Source: patent publication US6566081B1, “Methods of identifying a compound which modulates the non-transcriptional non-map-kinase induced effects of steroid hormones” (The Brigham and Women's Hospital, Inc., priority 1999, dated 2003)
Where “and” joins values, the source holds several entries; their conditions need not be identical. Equal values may be shown once. Entries after “also recorded” stand apart in the source; their conditions may differ.

Legend:
PI3-kinase = PI3-kinase assay on p85 immunoprecipitates of endothelial cell lysates; type: cell-based, human; details: for stimulation of PI3-kinase activity: E2/αE2 10 nM, insulin 100 nM; for effect on E2-induced PI3-kinase activation: E2 10 nM 20 min, ICI 10 μM, wortmannin 30 nM
Description: PI3kinase activity in endothelial cell lysates was assayed using the borate thin layer chromatography method, as described.^34 Following a 6 h incubation in serum- and estrogen-deficient medium 199, endothelial cells were treated according to the indicated conditions, washed, and harvested in ice-cold lysis buffer (137 mM NaCl, 20 mM Tris-HCl, pH 7.4, 1 mM CaCl2, 1 mM Mg Cl2, 0.1 mM Na3VO4, 1% NP-40). After pelleting the cell debris, the supernatant was incubated for 1 hour at 4° C. with 5 μL of a rabbit antiserum directed against the p85 regulatory subunit of the PI3-kinase (Upstate Biotechnology, Lake Placid, N.Y.), and immunoprecipitated with the addition of 50 μL of a 1:1 slurry of protein A-agarose for 1 hour at 4° C. Following centrifugation, the immunoprecipitates were washed three times with lysis buffer, three times with 0.1 M Tris-HCl, pH 7.4, 5 mM LiCl, 0.1 mM Na3VO4, followed by two washes with 10 mM Tris-HCl, pH 7.4, 150 mM NaCl, 5 mM EDTA, 0.1 mM Na3VO4.
The immunoprecipitates were then mixed with 50 μL Tris-HCl, pH 7.4, 150 mM NaCl, 5 mM EDTA, 20 μg of phosphatidylinositol (Sigma, Saint Louis, Mo.), 10 μL 100 mM MgCl2 and 5 μL of a 0.88 mM ATP, 20 mM MgCl2 solution, containing 30 μCi of [γ-^32P]ATP (3000 Ci/mmol; NEN Life Science Products, Boston, Mass.). […] The phospholipids were extracted with 160 μL of chloroform/methanol (1:1, v/v). 50 μL of the organic phase, containing the labeled PI3-kinase products were separated by borate thin layer chromatography on glass-backed Silica Gel 60 plates (EM Separations, Gibbstown, N.J.) pretreated with a solution containing 25 mM trans-1,2-diaminocyclohexane-N,N,N′N′-tetraacetic acid (CDTA, Sigma, Saint Louis, Mo.), 66% (v/v) ethanol and 0.06 N NaOH, dried for 1 hour and then baked at 100° C. for 15 minutes. The chromatography was developed with a solution containing 37.5% (v/v) methanol, 30% (v/v) chloroform, 22.5% (v/v) pyridine (Sigma, Saint Louis, Mo.), 1.33% (v/v) formic acid, […] boric acid and 8.5 mM butylated hydroxytoluene (Sigma, Saint Louis, Mo.), briefly dried and exposed to autoradiography.

NO release = test: Nitrite assay (NO accumulation from endothelial cells); type: cell-based, human; details: for stimulation of NO release / production (nitrite accumulation): 30 min, E2/αE2 10 nM, insulin 100 nM, acetylcholine; for effect on E2-induced NO release / production: E2 10 nM 30 min, ICI 10 μM, wortmannin 30 nM
Description: NO accumulation from serum-starved endothelial cells was determined by a modified nitrite assay using 2, 3 diaminonaphtalene as described previously.^33 Fluorescence of 1-(H)-naphtotriazole was measured with excitation and emission wavelengths of 365 and 450 nm, respectively. Standard curves were constructed with known amounts of sodium nitrite. Nonspecific fluorescence was determined in the presence of LNMA (3 mM).

eNOS = eNOS activity assay (conversion of [3H]-arginine to [3H]-citrulline) in treated human endothelial cells; type: cell-based; details: for time after stimulation at which PI3-kinase/eNOS activity is stimulated / effect on E2-stimulated eNOS activity, later phase (≥15 min) or 30 min: E2 10 nM; for time after stimulation at which PI3-kinase/eNOS activity is stimulated / stimulation of eNOS activity by the substance alone: insulin 100 nM; for stimulation of eNOS activity by the substance alone: E2/αE2 10 nM; for effect on E2-stimulated eNOS activity, later phase (≥15 min) or 30 min: wortmannin 30 nM, ICI 10 μM, genistein 50 μM, PD98059 5 μM, actinomycin D 2 h pretreatment; for effect on basal eNOS activity, substance alone: no E2
Description: Fetal bovine serum was deprived of estrogen by charcoal-stripping. Once grown to confluence the cells were replated on 1.5% gelatin-coated flasks at 20000 cells/cm^2. […] Cell number was assessed by direct cell counting of adherent cells, after trypsin detachment, in a Neubauer hemocytometer (VWR Scientifics). The percentage of cells excluding Trypan Blue after staining with the compound was taken as a measure of cell viability.
Endothelial cells were grown to confluence on 55 cm^2 culture dishes, treated according to the indicated conditions, and harvested in ice-cold PBS containing 1 mM EDTA. The cell lysates were pelleted in a microfuge (2 minutes, 13000 rpm, 4° C.) and subsequently homogenized in a buffer containing 25 mM Tris-HCl, pH 7.4, 1 mM EDTA, 1 mM EGTA. eNOS activity was determined by measuring the conversion of [^3H]-arginine to [^3H]-citrulline. Rat cerebellum extracts, containing elevated amounts of neuronal NOS, were used as positive controls, while endothelial cell extracts incubated in the presence of the competitive eNOS inhibitor L-NAME (1 mM) served as negative controls.
Human and bovine aortic endothelial cells were harvested enzymatically with Type IA collagenase (1 mg/mL).

17β-estradiol [E2]
stimulation of PI3-kinase activity (PI3-kinase; 20 min): strong activation
increase in PI3-kinase activity compared to baseline (PI3-kinase; E2 10 nM, 20 min): approximately 5 fold
PI3-kinase activity in the initial phase of stimulation (PI3-kinase; E2 10 nM, ≤10 min): little or no PI3-kinase activity
stimulation of NO release / production (nitrite accumulation) (NO release): increases NO release
lowest concentration increasing eNOS activity (eNOS; 30 min treatment of HSVEC): 10 pM
EC50 (eNOS; E2 10 pM-1 μM, 30 min, human endothelial cells, read-out: EC50 value for increase in eNOS activity): ~0.1 nM and 0.1 nM
time after stimulation at which PI3-kinase/eNOS activity is stimulated (eNOS): > 15 min
stimulation of eNOS activity by the substance alone (eNOS; 30 min): increases eNOS activity; also recorded: biphasic increase in eNOS activity; also recorded: marked increase
time of maximum effect on PI3-kinase and eNOS activity (eNOS; after stimulation): 15 to 20 min

C[C@]12CC[C@@H]3c4ccc(O)cc4C[C@@H](CCCCCCCCC[S+]([O-])CCCC(F)(F)C(F)(F)F)[C@H]3[C@@H]1CC[C@@H]2O (stereo partly shown) [ICI 187,780]
effect on E2-induced PI3-kinase activation (PI3-kinase): full inhibition; also recorded: completely inhibited
effect on E2-induced PI3-kinase activation (PI3-kinase; listed as ICI 182,780): completely blocked
effect on E2-induced NO release / production (NO release): completely blocked
effect on E2-induced NO release / production (NO release; listed as ICI 182,780): prevent
effect on acetylcholine-induced NO accumulation (NO release; acetylcholine 30 min): not influenced; also recorded: not affected
effect on E2-stimulated eNOS activity, later phase (≥15 min) or 30 min (eNOS): complete blockade; also recorded: completely blocked
effect on E2-stimulated eNOS activity, later phase (≥15 min) or 30 min (eNOS; listed as ICI 182,780): completely blocked
effect on basal eNOS activity, substance alone (eNOS): neither wortmannin nor ICI 187,780 alone affected basal eNOS activity
effect on basal eNOS activity, substance alone (eNOS; listed as ICI 182,780): did not produce any effect

insulin: known activator of the PI3-kinase/Akt pathway
stimulation of PI3-kinase activity (PI3-kinase; 20 min): comparable increase
stimulation of PI3-kinase activity (PI3-kinase; 20 min, listed as Insulin): marked activation
stimulation of NO release / production (nitrite accumulation) (NO release): able to stimulate
stimulation of NO release / production (nitrite accumulation) (NO release; listed as Insulin): activates nitrite release
time after stimulation at which PI3-kinase/eNOS activity is stimulated (eNOS): ≤ 2 min
stimulation of eNOS activity by the substance alone (eNOS; 30 min): marked increase; also recorded: able to stimulate
stimulation of eNOS activity by the substance alone (eNOS; 30 min, listed as Insulin): activates eNOS activity
